Experimental data: PubChem BioAssay AID2060620 (Molecular Pharmacology Branch, DTP, NCI, 2025)
Values joined by “and” are separate entries in the source; they are usually repeats but may differ in a detail not shown here. Equal entries are not always repeated. One block for each compound: values may come before it.

Tested on: 328373-195-R-J1-PDC complex spheroids, viability % test/control
Assay: Anticancer human tumor 328373-195-R-J1-PDC patient-derived head and neck squamous carcinoma cell line growth inhibition [CLK]
Settings: for viability, T/C: stronger effect = lower value
Excerpt: A high-throughput screen of multi-cell type tumor spheroids was designed to identify active combinations of […] and targeted small molecules. Complex spheroids include a stromal component modeled by human endothelial cells (HUVEC) and fibroblasts modeled by human mesenchymal stem cells (MSCs). The concentration ranges selected for each drug and investigational agent were based upon clinically achievable concentrations if the clinical Cmax of the agent was known.
Compounds. The drugs and investigational agents: cirtuvivint (SM08502; NSC835563), CC-671 (NSC850746), vemurafenib (NSC761431), tapotoclax (NSC804041), sotorasib (NSC818433), adagrasib (NSC831453), MRTX-1133 (NSC836407), BAY2416964 (NSC825713), copanlisib (NSC816437), inavolisib (NSC800729), abemaciclib (NSC768073), osimertinib (NSC779217), entinostat (NSC756642), eltanexor (KPT-8602, NSC794443), venetoclax (NSC766270), ceralasertib (NSC777638), bortezomib (NSC756655), olaparib (NSC753686), talazoparib (NSC767125), alisertib (NSC759677), peposertib (NSC802822), gemcitabine (NSC613327), 5-fluorouracil (NSC19893), SN-38 (NSC673596), oxaliplatin (NSC266046), paclitaxel (NSC125973), and doxorubicin (NSC123127), were obtained from the National Cancer Institute (NCI) Developmental Therapeutics Program Chemical Repository. The FDA-approved anticancer drug set is available from the Developmental Therapeutics Program at https://dtp.cancer.gov/organization/dscb/obtaining/available plates.htm. […] The stock solutions were prepared in dimethyl sulfoxide (DMSO, Sigma-Aldrich, St. Louis, MO, cat. D2650), except for the platinum complexes which were prepared in saline (Quality Biological, Gaithersburg, MD, cat. 114-055-101), at 800-fold the tested concentration and stored at -70 degrees C prior to their use. All drugs and investigational agents were tested over a range starting from a high concentration at or near the clinical Cmax and decreasing in half-log increments. If the clinical Cmax for an agent had not been determined, the highest concentration tested was 10 microM.
Cell Culture. All cells were maintained in an incubator at 37 degrees C and 5% CO2 with 95% humidity. The PDC lines were cultured according to standard operating procedures established by the NCI PDMR. Briefly, all PDCs were thawed and cultured in Matrigel-coated flasks prepared with a working solution of 1X Ham's F-12 nutrient mix, without supplementation (Invitrogen, Waltham, MA, cat. 11765054), 100 U/mL penicillin-streptomycin (Invitrogen, cat. 15140122), and 2.5% Matrigel (Corning Inc., Corning, NY, cat. 354248) for the first three passages. The 947758-054-R-J2-PDC line was cultured in 6B/Colon 1A media, which includes advanced DMEM/F-12 (Thermo Fisher Scientific, cat. 12634028), 10 mM HEPES (Thermo Fisher Scientific, cat. 15630080), 1X GlutaMAX supplement (Thermo Fisher Scientific, cat. 35050061), 0.1 mg/mL primocin (InvivoGen, cat. ant-pm-2), 10% defined fetal bovine serum, heat inactivated (HyClone Laboratories Inc., cat. SH30070.03HI), 1.25 mM N-Acetyl-L-cysteine (Sigma-Aldrich, cat. A9165), 10 mM nicotinamide (Sigma-Aldrich, cat. N0636), 1X B-27 supplement (Thermo Fisher Scientific, cat. 17504044), 1X N-2 supplement (Thermo Fisher Scientific, cat. 17502048), and 10 microM Y-27632 dihydrochloride (Tocris Bioscience, cat. 1254). The 876862-298-R-J1-PDC was cultured in 6E media, which includes all 6B/Colon 1A media components plus 50% L-WRN conditioned media (ATCC, cat. CRL-3276), 50 ng/mL recombinant human EGF recombinant protein (hEGF; Thermo Fisher Scientific, cat. PHG0311), 10 ng/mL recombinant human fibroblast growth factor 10 (hGFG-10; PeproTech, cat. 100-26), 1 ng/mL recombinant human fibroblast growth factor 2 (hFGF-2; PeproTech, cat. 100-18B), and 1 µM prostaglandin E2 (PGE2; Tocris, cat. 2296). The 227483-062-R1-J1-PDC line was cultured in Panc media, containing all 6E components except hFGF-2, with the addition of 500 nM SB-431542 (Selleckchem, cat. S1067) and 10 nM gastrin (Tocris, cat. 3006). […]
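Further: spheroids exposed to the agents for 7 days.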

SMILES: CNC(=O)c1ccc(Nc2nc(OC3CCCC3)c3c(-c4ccc5nc(C)oc5c4)c[nH]c3n2)c(OC)c1
- viability, T/C (compound 0.1 µM): 12.1% [middle of 12 runs]
- viability, T/C (compound 0.316 µM): 10.1% [middle of 11 runs]
- viability, T/C (compound 1 µM): 9.35% [middle of 12 runs]
- viability, T/C (compound 3.16 µM): 9.17% [middle of 12 runs]
- viability, T/C (compound 10 µM): 11.8% [middle of 12 runs]

- IC50 (curve of compound): 9.71 µM and > 10 µM
SMILES: COc1ccc([C@@H](O)c2cc(-c3ncnc4cc(N5CCOCC5)ccc34)c(F)cc2Cl)nn1
- viability, T/C (compound 0.0316 µM): 92.4% and 111%
- viability, T/C (compound 0.1 µM): 91.4% and 93%
- viability, T/C (compound 0.316 µM): 88% and 80%
- viability, T/C (compound 1 µM): 86.8% and 84.3%
- viability, T/C (compound 3.16 µM): 76% and 71.4%
- viability, T/C (compound 10 µM): 48.9% and 47.2%

- IC50 (curve of compound): < 0.0316 µM
SMILES: COc1cccc2c1C(=O)c1c(O)c3c(c(O)c1C2=O)CC(O)(C(=O)CO)CC3OC1CC(N)C(O)C(C)O1 (stereo unspecified)
- viability, T/C (compound 0.0316 µM): 14.6% and 11.2%
- viability, T/C (compound 0.1 µM): 11.1% and 6.08%
- viability, T/C (compound 0.316 µM): 1.12% and 2.35%
- viability, T/C (compound 1 µM): 0.18% and 1.14%
- viability, T/C (compound 3.16 µM): 2.47% and 0.1%
- viability, T/C (compound 10 µM): 1.82% and 1.43%

SMILES: C=CC(=O)N1CCN(c2nc(=O)n(-c3c(C)ccnc3C(C)C)c3nc(-c4c(O)cccc4F)c(F)cc23)C(C)C1 (stereo unspecified) + CN1CCN(c2cc(C(=O)Nc3cc4cc(-c5cnn(C)c5)ccc4cn3)ccn2)CC1
- IC50 (curve of first compound, second compound 0.0316 µM): > 10 µM
- IC50 (curve of first compound, second compound 0.1 µM): > 10 µM
- IC50 (curve of first compound, second compound 0.316 µM): < 0.0316 µM
- IC50 (curve of first compound, second compound 1 µM): < 0.0316 µM
- IC50 (curve of first compound, second compound 3.16 µM): < 0.0316 µM
- IC50 (curve of first compound, second compound 10 µM): < 0.0316 µM
- viability, T/C (second compound 0.0316 µM, first compound 0.0316 µM): 93.6%
- viability, T/C (second compound 0.0316 µM, first compound 0.1 µM): 90.1%
- viability, T/C (second compound 0.0316 µM, first compound 0.316 µM): 99.3%
- viability, T/C (second compound 0.0316 µM, first compound 1 µM): 99%
- viability, T/C (second compound 0.0316 µM, first compound 3.16 µM): 94%
- viability, T/C (second compound 0.0316 µM, first compound 10 µM): 77.7%
- viability, T/C (second compound 0.1 µM, first compound 0.0316 µM): 80%
- viability, T/C (second compound 0.1 µM, first compound 0.1 µM): 82.7%
- viability, T/C (second compound 0.1 µM, first compound 0.316 µM): 89.3%
- viability, T/C (second compound 0.1 µM, first compound 1 µM): 86.6%
- viability, T/C (second compound 0.1 µM, first compound 3.16 µM): 83.5%
- viability, T/C (second compound 0.1 µM, first compound 10 µM): 62.9%
- viability, T/C (second compound 0.316 µM, first compound 0.0316 µM): 37.6%
- viability, T/C (second compound 0.316 µM, first compound 0.1 µM): 37.7%
- viability, T/C (second compound 0.316 µM, first compound 0.316 µM): 41.1%
- viability, T/C (second compound 0.316 µM, first compound 1 µM): 43.2%
- viability, T/C (second compound 0.316 µM, first compound 3.16 µM): 36.2%
- viability, T/C (second compound 0.316 µM, first compound 10 µM): 16.5%
- viability, T/C (second compound 1 µM, first compound 0.0316 µM): 0.2%
- viability, T/C (second compound 1 µM, first compound 0.1 µM): 2.35%
- viability, T/C (second compound 1 µM, first compound 0.316 µM): 0.89%
- viability, T/C (second compound 1 µM, first compound 1 µM): 0.26%
- viability, T/C (second compound 1 µM, first compound 3.16 µM): 1.99%
- viability, T/C (second compound 1 µM, first compound 10 µM): 1.88%
- viability, T/C (second compound 3.16 µM, first compound 0.0316 µM): 1.99%
- viability, T/C (second compound 3.16 µM, first compound 0.1 µM): 4.29%
- viability, T/C (second compound 3.16 µM, first compound 0.316 µM): 3.33%
- viability, T/C (second compound 3.16 µM, first compound 1 µM): 0.14%
- viability, T/C (second compound 3.16 µM, first compound 3.16 µM): 1.88%
- viability, T/C (second compound 3.16 µM, first compound 10 µM): 0.7%
- viability, T/C (second compound 10 µM, first compound 0.0316 µM): 1.21%
- viability, T/C (second compound 10 µM, first compound 0.1 µM): 1.7%
- viability, T/C (second compound 10 µM, first compound 0.316 µM): 1.33%
- viability, T/C (second compound 10 µM, first compound 1 µM): 0.55%
- viability, T/C (second compound 10 µM, first compound 3.16 µM): 3.67%
- viability, T/C (second compound 10 µM, first compound 10 µM): 1%
